Data from ChEMBL document CHEMBL1212709, “Design of isoform-selective phospholipase D inhibitors that modulate cancer cell invasiveness” (Nat Chem Biol, 2009).

What was measured:
Phospholipase D1 [1] = molecular target: T1, Phospholipase D1 (Rattus norvegicus, UniProt P70496); test: Inhibition of N-terminally truncated rat PLD1 assessed as release of methyl-[3H]choline from choline-methyl-[3H]dipalmitoylphosphatidylcholine after 30 mins by exogenous substrate assay
T1 sequence (P70496 whole entry): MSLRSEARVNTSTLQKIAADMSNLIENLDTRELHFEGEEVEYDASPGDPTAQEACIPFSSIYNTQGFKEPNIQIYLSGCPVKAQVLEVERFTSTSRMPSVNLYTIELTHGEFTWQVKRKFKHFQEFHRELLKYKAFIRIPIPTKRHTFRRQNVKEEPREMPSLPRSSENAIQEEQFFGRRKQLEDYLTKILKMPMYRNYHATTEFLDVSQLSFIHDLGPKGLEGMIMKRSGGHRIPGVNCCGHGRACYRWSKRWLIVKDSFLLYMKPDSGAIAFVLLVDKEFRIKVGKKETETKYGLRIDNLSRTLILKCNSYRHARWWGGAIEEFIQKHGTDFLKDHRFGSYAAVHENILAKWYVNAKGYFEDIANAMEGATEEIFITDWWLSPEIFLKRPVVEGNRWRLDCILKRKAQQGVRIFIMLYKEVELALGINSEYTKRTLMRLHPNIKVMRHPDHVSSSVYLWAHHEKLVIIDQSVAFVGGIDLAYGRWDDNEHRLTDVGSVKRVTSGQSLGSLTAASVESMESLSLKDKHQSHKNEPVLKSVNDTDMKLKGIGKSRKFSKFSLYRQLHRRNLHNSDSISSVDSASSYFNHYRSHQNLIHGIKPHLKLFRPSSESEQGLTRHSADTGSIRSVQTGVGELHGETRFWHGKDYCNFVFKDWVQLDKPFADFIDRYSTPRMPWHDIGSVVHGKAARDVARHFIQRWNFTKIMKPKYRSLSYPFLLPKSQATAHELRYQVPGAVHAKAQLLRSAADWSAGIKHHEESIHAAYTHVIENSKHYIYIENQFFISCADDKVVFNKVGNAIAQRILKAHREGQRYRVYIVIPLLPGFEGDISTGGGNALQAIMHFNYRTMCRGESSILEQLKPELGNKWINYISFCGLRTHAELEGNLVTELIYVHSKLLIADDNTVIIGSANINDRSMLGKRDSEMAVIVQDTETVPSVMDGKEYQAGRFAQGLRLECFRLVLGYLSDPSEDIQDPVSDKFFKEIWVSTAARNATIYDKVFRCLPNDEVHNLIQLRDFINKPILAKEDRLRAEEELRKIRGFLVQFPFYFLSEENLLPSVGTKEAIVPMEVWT

Phospholipase D2 [2] = molecular target: T2, Phospholipase D2 (Homo sapiens, UniProt O14939); test: Inhibition of GFP-tagged human PLD2 expressed in human HEK293 cells assessed as decrease in phosphatidylbutanol-[d9] production after 30 mins by mass spectrometric analysis; type: cell-based
T2 sequence (O14939 whole entry): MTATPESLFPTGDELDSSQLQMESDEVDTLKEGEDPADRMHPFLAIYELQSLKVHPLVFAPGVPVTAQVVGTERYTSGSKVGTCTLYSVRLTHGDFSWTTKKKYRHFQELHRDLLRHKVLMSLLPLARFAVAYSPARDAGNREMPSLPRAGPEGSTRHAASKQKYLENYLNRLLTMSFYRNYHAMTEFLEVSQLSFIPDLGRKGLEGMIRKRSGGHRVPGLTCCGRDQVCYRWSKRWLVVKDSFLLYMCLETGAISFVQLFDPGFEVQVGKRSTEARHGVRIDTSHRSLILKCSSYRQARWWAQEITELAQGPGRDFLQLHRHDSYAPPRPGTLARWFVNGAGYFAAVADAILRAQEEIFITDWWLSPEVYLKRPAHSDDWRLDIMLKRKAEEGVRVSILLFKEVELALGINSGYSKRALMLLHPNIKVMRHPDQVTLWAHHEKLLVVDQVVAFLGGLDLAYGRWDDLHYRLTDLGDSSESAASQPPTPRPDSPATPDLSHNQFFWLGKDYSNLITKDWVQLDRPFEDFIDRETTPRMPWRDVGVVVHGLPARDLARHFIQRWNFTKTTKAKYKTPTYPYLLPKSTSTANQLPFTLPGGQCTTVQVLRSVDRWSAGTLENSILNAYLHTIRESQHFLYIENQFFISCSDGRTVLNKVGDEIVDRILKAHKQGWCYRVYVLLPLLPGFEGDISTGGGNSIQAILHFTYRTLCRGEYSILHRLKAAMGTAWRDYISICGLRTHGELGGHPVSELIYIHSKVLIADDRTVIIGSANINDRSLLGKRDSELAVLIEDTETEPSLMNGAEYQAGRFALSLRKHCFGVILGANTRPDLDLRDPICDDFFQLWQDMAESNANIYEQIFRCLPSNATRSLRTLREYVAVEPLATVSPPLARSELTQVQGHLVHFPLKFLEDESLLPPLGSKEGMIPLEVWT

Phospholipase D1 [3] = molecular target: T3, Phospholipase D1 (Homo sapiens, UniProt Q13393)
T3 sequence (Q13393 whole entry): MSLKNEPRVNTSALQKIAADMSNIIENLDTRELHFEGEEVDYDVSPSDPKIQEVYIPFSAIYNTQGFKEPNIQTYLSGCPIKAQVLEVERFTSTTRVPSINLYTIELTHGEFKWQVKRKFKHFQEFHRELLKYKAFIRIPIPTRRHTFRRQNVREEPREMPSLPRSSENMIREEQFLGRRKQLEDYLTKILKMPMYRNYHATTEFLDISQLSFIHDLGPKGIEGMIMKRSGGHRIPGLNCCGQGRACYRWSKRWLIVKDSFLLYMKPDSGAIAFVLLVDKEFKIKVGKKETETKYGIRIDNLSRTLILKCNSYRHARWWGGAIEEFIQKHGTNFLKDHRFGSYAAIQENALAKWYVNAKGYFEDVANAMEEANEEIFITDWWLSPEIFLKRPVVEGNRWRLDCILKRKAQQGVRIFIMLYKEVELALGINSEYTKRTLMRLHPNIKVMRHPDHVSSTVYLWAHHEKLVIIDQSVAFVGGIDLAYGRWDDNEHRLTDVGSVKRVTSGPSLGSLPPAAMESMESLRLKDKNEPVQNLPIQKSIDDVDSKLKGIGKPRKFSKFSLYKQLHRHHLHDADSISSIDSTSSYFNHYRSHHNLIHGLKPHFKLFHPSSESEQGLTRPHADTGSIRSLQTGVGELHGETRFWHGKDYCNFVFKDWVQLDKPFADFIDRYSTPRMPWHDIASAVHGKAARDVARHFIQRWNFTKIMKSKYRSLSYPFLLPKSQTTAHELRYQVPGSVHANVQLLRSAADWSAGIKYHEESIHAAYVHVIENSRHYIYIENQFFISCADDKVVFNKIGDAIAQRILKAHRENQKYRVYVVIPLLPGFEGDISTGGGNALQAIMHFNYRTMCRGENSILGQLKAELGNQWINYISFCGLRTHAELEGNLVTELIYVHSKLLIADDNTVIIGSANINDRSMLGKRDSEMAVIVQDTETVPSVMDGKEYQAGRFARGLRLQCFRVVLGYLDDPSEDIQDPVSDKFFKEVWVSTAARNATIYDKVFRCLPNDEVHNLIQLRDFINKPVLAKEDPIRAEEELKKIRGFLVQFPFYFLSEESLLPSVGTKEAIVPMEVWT

Phospholipase D1 [4] = molecular target: T3, Phospholipase D1; test: Inhibition of human PLD1 assessed as release of methyl-[3H]choline from choline-methyl-[3H]dipalmitoylphosphatidylcholine after 30 mins by exogenous substrate assay
Phospholipase D2 [5] = molecular target: T2, Phospholipase D2; test: Inhibition of human PLD2 assessed as release of methyl-[3H]choline from choline-methyl-[3H]dipalmitoylphosphatidylcholine after 30 mins by exogenous substrate assay
[6] = Inhibition of PLD
Phospholipase D1 [7] = molecular target: T3, Phospholipase D1; test: Inhibition of human PLD1b
[8] = Inhibition of in Streptomyces chromofuscus PLD

IC50 (Phospholipase D1 [3]) | IC50 [6] | IC50 [8] | Structure (SMILES) | IC50 (Phospholipase D1 [1]) | IC50 (Phospholipase D2 [2]) | IC50 (Phospholipase D1 [4]) | IC50 (Phospholipase D2 [5]) | IC50 (Phospholipase D1 [7])
– | – | – | O=C(NCCN1CCC2(CC1)C(=O)NCN2c1ccccc1)c1ccc2ccccc2c1 | > 20000 nM | – | – | – | –
– | > 60000 nM | – | Oc1ccc(/C=C/c2cc(O)cc(O)c2)cc1 [RESVERATROL] | – | – | – | – | –
85 nM | – | – | O=C(NCCN1CCC(n2c(=O)[nH]c3ccccc32)CC1)c1cc(Cl)cc(Cl)c1 | 3500 nM | 1100 nM | 400 nM | 1900 nM | –
79 nM | – | – | C=Cc1ccc(C(=O)NCCN2CCC(n3c(=O)[nH]c4ccccc43)CC2)cc1 | – | – | 540 nM | – | –
8.9 nM | – | – | O=C(NCCN1CCC(n2c(=O)[nH]c3ccccc32)CC1)c1cc(Br)c(Br)o1 | 2900 nM | 220 nM | 79 nM | 170 nM | –
32 nM | – | – | Cc1ccc(C(=O)NCCN2CCC(n3c(O)nc4ccccc43)CC2)cc1 | 1700 nM | 210 nM | 780 nM | 1100 nM | –
330 nM | – | – | O=C(NCCN1CCC(n2c(=O)[nH]c3ccccc32)CC1)n1c2ccccc2c2ccccc21 | 7200 nM | 260 nM | 300 nM | 1000 nM | –
6.3 nM | – | – | O=C(NCCN1CCC(n2c(O)nc3ccccc32)CC1)c1ccc(Cl)cc1 | 910 nM | 140 nM | 55 nM | 130 nM | –
20 nM | – | – | O=C(NCCN1CCC(n2c(O)nc3ccccc32)CC1)c1cccc2c1-c1ccccc1C2=O | 1100 nM | 1000 nM | 260 nM | 600 nM | –
– | – | 100 nM | CC(C)=CCC/C(C)=C/CC/C(C)=C/[C@H]1[C@H](COP(=O)(O)OP(=O)(O)O)[C@@]1(C)CC/C=C(\C)CCC=C(C)C [Z-PSDP] | – | – | – | – | > 1000 nM
1 nM | – | – | O=C(NCCN1CCC(n2c(=O)[nH]c3ccccc32)CC1)c1cc2cc(F)ccc2[nH]1 | 33 nM | – | 9.5 nM | 17 nM | –
37 nM | – | – | O=C(NCCN1CCC(n2c(=O)[nH]c3ccccc32)CC1)c1ccc[nH]1 | 1500 nM | 340 nM | 316 nM | 1200 nM | –
19 nM | – | – | O=C(NCCN1CCC(n2c(O)nc3ccccc32)CC1)c1ccc(Cl)c(Cl)c1 | 910 nM | 220 nM | 46 nM | 250 nM | –
14 nM | – | – | O=C(NCCN1CCC(n2c(=O)[nH]c3ccccc32)CC1)c1cc2ccccc2s1 | 1000 nM | 210 nM | 100 nM | 340 nM | –
48 nM | – | – | O=C(c1ccc(F)cc1)N(CCN1CCC(n2c(=O)[nH]c3ccccc32)CC1)C(=O)c1ccc(F)cc1 | 870 nM | 470 nM | 1400 nM | 2200 nM | –
– | – | – | O=C(NCCN1CCC2(CC1)C(=O)NCN2c1ccccc1)c1ccc(C(F)(F)F)cc1 | > 20000 nM | – | – | 4300 nM | –

Structure (SMILES) | IC50 (Phospholipase D1 [3]) | IC50 [6] | IC50 [8] | IC50 (Phospholipase D1 [1]) | IC50 (Phospholipase D2 [2]) | IC50 (Phospholipase D1 [4]) | IC50 (Phospholipase D2 [5]) | IC50 (Phospholipase D1 [7])
O=C(c1ccc(OCCN2CCCCC2)cc1)c1c(-c2ccc(O)cc2)sc2cc(O)ccc12 [RALOXIFENE] | 8500 nM | – | – | > 20000 nM | 10000 nM | 4300 nM | 3400 nM | –
COc1ccc(C(=O)NCCN2CCC(n3c(=O)[nH]c4ccccc43)CC2)cc1 | 1000 nM | – | – | > 20000 nM | 1100 nM | 15000 nM | > 20000 nM | –
CCC(=C(c1ccc(O)cc1)c1ccc(OCCN(C)C)cc1)c1ccccc1 | 4800 nM | – | – | 28000 nM | – | – | – | –
